We go through five compounds from patent US6777414B1, “Nitrogen-containing heterocyclic compounds and benamide compounds and drugs containing the same” (Meiji Seika Kaisha, Ltd., priority 1999, dated 2004).

For data set [1], the system named is Hep G2 cells. Put plainly: Triglyceride biosynthesis inhibitory activity (14C-acetic acid incorporation into triglyceride). Type of data set: cell-based. The conditions noted are these: Homo sapiens, HepG2, test compound 1 μM. As to the method:
Test 1: Triglyceride Biosynthesis Inhibitory Activity
The triglyceride biosynthesis inhibitory activity of compounds according to the present invention was examined using human hepatoma-derived cell line, Hep G2.
The test was carried out by partially modifying the method of Nagata et al. (Biochem. Pharmacol., 40, 843 (1990)) and the method of Furukawa et al. (J. Biol. Chem., 267, 22630 (1992)). Specifically, Hep G2 cells were cultivated in a Dulbecco modified Eagles's medium (DMEM) containing 10% fetal calf serum (FCS), 100 units/ml penicillin, and 100 μg/ml streptomycin on a 96-well plate. Thereafter, the medium was replaced by DMEM containing 1% bovine serum albumin. At the same time, the test compound was added to a final concentration of 1 μM, followed by cultivation, or cultivation was carried out without the addition of the test compound. Three hours after the replacement of the medium, ^14C-acetic acid was added to a final concentration of 1 mM, and cultivation was continued for additional 4 hours. After the cells were washed with a phosphate buffer (pH 7.5) containing 150 mM sodium chloride, lipids within the cells were extracted with n-butanol. After the extraction, the extract was evaporated to dryness under a nitrogen stream. The solid obtained by the evaporation to dryness was dissolved in a minor amount of chloroform. The solution was developed by thin layer chromatography (development solvent: petroleum ether/diethyl ether/acetic acid=90/15/3) to separate a ^14C-triglyceride fraction, and the amount of ^14C-triglyceride produced was then determined with a liquid scintillation counter (Beckman, LS-6500).
The inhibition (%) of biosynthesis of triglyceride was calculated by the following equation.
Inhibition of biosynthesis of triglyceride (%)={1−(amount of ^14C-triglyceride produced in the presence of test compound)/(amount of ^14C-triglyceride produced in the absence of test compound)}×100

Data set [2] has as its system Hep G2 cells. Put plainly: Apolipoprotein B secretion inhibitory activity (sandwich ELISA of culture supernatant). Type of data set: cell-based. The note with it: Homo sapiens, HepG2, test compound 1 μM. As to the method: Test 2: Apolipoprotein B Secretion Inhibitory Activity
The apolipoprotein B secretion inhibitory activity of compounds according to the present invention was examined using human hepatoma-derived cell line, Hep G2.
The test was carried out by partially modifying the method of Nagata et al. (Biochem. Pharmacol., 40, 843 (1990)) and the method of Furukawa et al. (J. Biol. Chem., 267, 22630 (1992)). Specifically, Hep G2 cells were cultivated in a Dulbecco modified Eagles's medium (DMEM) containing 10% fetal calf serum (FCS), 100 units/ml penicillin, and 100 μg/ml streptomycin on a 96-well plate. Thereafter, the medium was replaced by DMEM containing 1% bovine serum albumin. At the same time, the test compound was added to a final concentration of 1 μM, followed by cultivation, or cultivation was carried out without the addition of the test compound. Three hours after the replacement of the medium, acetic acid was added to a final concentration of 1 mM, and cultivation was continued for additional 4 hours. The amount of apolipoprotein B secreted in the supernatant of the culture thus obtained was determined by the sandwich ELISA method. Goat anti-human apolipoprotein B polyclonal antibody (CHEMICON) was used as the primary antibody, and mouse anti-human apolipoprotein B monoclonal antibody peroxydase conjugate (BIOSYS) was used as the secondary antibody.
The inhibition (%) of secretion of apolipoprotein B was calculated by the following equation.
Inhibition (%) of secretion of apolipoprotein B={1−(amount of apolipoprotein B secreted in the presence of test compound)/(amount of apolipoprotein B secreted in the absence of test compound)}×100
For orientation: An ELISA detects its analyte on a solid surface through an enzyme-linked reagent.

The test system of the next data set is ddY mice (male). Briefly: Acute toxicity test in mice. Type of data set: in vivo. The note with it: orally administered 200 mg/kg, observed for 8 days. The procedure: (§1) Test 3: Acute Toxicity Test
(§2) For the compound prepared in Example 104, an acute toxicity test was carried out using mice and rats according to a conventional method.

For another data set, the system named is wistar rats (male). Put plainly: Acute toxicity test in rats. The conditions noted are these: orally administered 200 mg/kg, observed for 8 days. Type of data set: in vivo. The procedure:
as §1, §2

`CC(C)N(C(=O)c1cccc(N2CCN(CCC(c3ccccc3)c3ccccc3)CC2)c1)C(C)C` [Example 5, N,N-Diisopropyl-3-[4-(3,3-diphenyl-1-propyl)piperazin-1-yl]benzamide]: the inhibition at 1 µM amounted to 8% in the data set with Hep G2 cells [1] and 92% in the data set on Hep G2 cells [2].

Turning to `O=C1c2cc(N3CCN(CCCCC4(C(=O)NCC(F)(F)F)c5ccccc5-c5ccccc54)CC3)ccc2CCN1CC1CCCCO1` (centres unmarked) [Example 99, 2-(Tetrahydropyran-2-yl)methyl-7-[4-[4-[9-(2,2,2-trifluoroethylcarbamoyl)-9H-fluoren-9-yl]butyl]piperazin-1-yl]-3,4-dihydro-2H-isoquinolin-1-one], the inhibition at 1 µM was 11% in the data set on Hep G2 cells [1] and at least 80% with Hep G2 cells [2].

With `C=CCN(CC(F)(F)F)C(=O)C1(CCCCN2CCN(c3ccc4c(c3)C(=O)N(Cc3ccccc3)CC4)CC2)c2ccccc2-c2ccccc21` [Example 102, 7-[4-[4-[9-[Allyl-(2,2,2-trifluoroethyl)carbamoyl]-9H-fluoren-9-yl]butyl]piperazin-1-yl]-2-benzyl-3,4-dihydro-2H-isoquinolin-1-one], the results for the inhibition at 1 µM with Hep G2 cells [1] and in the data set with Hep G2 cells [2] were 89% and 80%, respectively.

Turning to `O=C1c2cc(N3CCN(CCC(c4ccccc4)c4ccccc4)CC3)ncc2CCN1Cc1ccccc1` [Example 104, 2-Benzyl-7-[4-(3,3-diphenyl-1-propyl)piperazin-1-yl]-3,4-dihydro-2H-2,6-naphthyridin-1-one], the “Change in general conditions, such as weight, in acute toxicity test” value with ddY mice (male) was “any change in general conditions, such as a change in weight, did not occur”; with wistar rats (male), “any change in general conditions, such as a change in weight, did not occur”. Moreover, the “Survival in acute toxicity test” value in the data set on ddY mice (male) and with wistar rats (male) was “all the animals survived” each time. Also, the inhibition at 1 µM stood at 83% in the data set with Hep G2 cells [1] and 84% in the data set with Hep G2 cells [2].

Take `O=c1c2cc(N3CCN(CCC(c4ccccc4)c4ccccc4)CC3)ccc2cnn1Cc1ccccc1` [Example 149, 2-Benzyl-7-[4-(3,3-diphenylpropyl)piperazin-1-yl]-2H-phthalazin-1-one]: the inhibition at 1 µM with Hep G2 cells [1] was found to be 74%; in the data set on Hep G2 cells [2], 70%.

The term inhibition denotes the share of the control response that was lost under treatment.
